Where two headings read alike, the source gives them in different places.

Data set [1] relates to HBV. Put plainly: anti-HBV activity in stable transfected HepG2.2.15 cell line, HBV DNA from secreted virions by realtime PCR. It is filed as cell-based, Hepatitis B virus. Conditions: read-out: HBV-HepG2 2.15 EC50.
For data set [2], the system named is HBV. The data set is described as follows: anti HBV activity in HepG2.117 cell line (Tet-off, inducibly HBV producing), intracellular HBV DNA by realtime PCR. The data set is classed as cell-based, Hepatitis B virus. To be noted: read-out: HepG2 117 EC50.
Data set [3] in a line: Cytotoxicity in HepG2 cells incubated 4 days, Resazurin assay. To be noted: human, HepG2 4 days CC50, HepG2 cells.
Data set [4] in a line: Cytotoxicity in HepG2 cells using CellTiter-Blue, same incubation period as HepG2.2.15 assay. The data set is classed as cell-based. To be noted: human. As for the experimental part:
Cytotoxicity of the compounds was tested in HepG2 cells using CellTiter-Blue, with the same incubation period and dose range as in the HepG2.2.15 assay.
(In general: The colour change of resazurin is a common sign of viable cells or microbes.)

[5] abbreviates: Hepatitis B virus, HepG2.2.15, 144 h, HepG2.2.15 cells, 6 days of treatment, secreted virion HBV DNA.
[6] abbreviates: Hepatitis B virus, HepG2.117, 72 h, HepG2.117 cells, 3 days of treatment, intracellular HBV DNA.
[7] abbreviates: HepG2.2.15 cells, 6 days of treatment, secreted virion HBV DNA.
Setting [8] is: HepG2.117 cells, 3 days of treatment, intracellular HBV DNA.
[9] abbreviates: HepG2 cells, 6 days, CellTiter-Blue, read-out: HepG2 6 days CC50.
Setting [10] is: Hepatitis B virus, HepG2.2.15, 144 h.
Setting [11] is: Hepatitis B virus, HepG2.117, 72 h.

As for `COC(=O)C1=C(C)NC(c2nccs2)=NC1(C)c1ccc(F)c(F)c1` (racemic) [Compound 155], the concentration giving a half-maximal response (EC50) turned out to be 0.744 µM in data set [1] (setting [5]) and 14 µM in data set [2] (setting [6]).

`COC(=O)C1=C(C)NC(c2ncccc2F)=NC1(C)c1ccc(F)c(F)c1` (racemic) [Compound 158]: the half-maximal effective concentration (EC50) in data set [2] (setting [6]) turned out to be 4.56 µM. This compound also showed a cytotoxic concentration (CC50) at 4 days in data set [3] greater than 25 µM.

For the compound `COC(=O)C1=C(C)NC(SC)=NC1(C)c1ccc(F)c(F)c1` (racemic) [Compound 160], the concentration giving a half-maximal response (EC50) in data set [1] (setting [5]) came to 0.717 µM; in data set [2] (setting [6]), 23.7 µM. In addition, the cytotoxic concentration (CC50) at 4 days in data set [3] was greater than 25 µM.

For `COC(=O)C1=C(C)NC(c2ncc(F)cc2F)=NC1(C)c1ccc(F)c(F)c1` (single isomer, unassigned) [Compound 132a], the concentration for a half-maximal effect (EC50) was greater than 100 µM in data set [1] (setting [5]) and greater than 25 µM in data set [2] (setting [6]). In data set [3], the CC50 at 4 days is 21.1 µM.

Take `COC(=O)C1=C(C)NC(c2ncc(F)cc2F)=NC1(c1ccc(F)c(F)c1)C(F)F` (single isomer, unassigned) [Compound 151a]: the concentration giving a half-maximal response (EC50) in data set [1] (setting [7]) is greater than 100 µM; in data set [2] (setting [8]) it was greater than 25 µM. Moreover, the CC50 at 4 days in data set [3] was greater than 25 µM.

With `COC(=O)C1=C(C)NC(c2nccs2)=NC1(C)c1ccc(F)c(F)c1` (single isomer, unassigned) [Compound 155a], the figures for the EC50 in data set [1] (setting [7]) and in data set [2] (setting [6]) were 0.983 µM and 17.1 µM, respectively.

Regarding `COC(=O)C1=C(C)NC(c2nccs2)=NC1(C)c1ccc(F)c(F)c1` (single isomer, unassigned) [Compound 155b], the concentration giving a half-maximal response (EC50) in data set [1] (setting [7]) was greater than 100 µM; in data set [2] (setting [8]), greater than 25 µM.

`COC(=O)C1=C(C)NC(c2ncccc2F)=NC1(C)c1ccc(F)c(F)c1` (single isomer, unassigned) [Compound 158a]: in data set [2] (setting [8]), the EC50 was determined as 2.44 µM. The same compound gave a CC50 at 4 days in data set [3] greater than 25 µM.

Take `COC(=O)C1=C(C)NC(c2ncccn2)=NC1(C)c1ccc(F)c(F)c1` (single isomer, unassigned) [Compound 159a]: the EC50 in data set [1] (setting [7]) was 37.5 µM; in data set [2] (setting [6]), 25 µM. The compound also came in with a half-maximal cytotoxic concentration (CC50) at 4 days in data set [3] greater than 25 µM.

On to `COC(=O)C1=C(C)NC(SC)=NC1(C)c1ccc(F)c(F)c1` (single isomer, unassigned) [Compound 160a], for which the EC50 in data set [1] (setting [7]) is greater than 50 µM; in data set [2] (setting [8]), greater than 25 µM. In data set [3], this compound gave a half-maximal cytotoxic concentration (CC50) at 4 days greater than 25 µM.

For the compound `COC(=O)C1=C(C#N)NC(c2ncc(F)cc2F)=NC1(C)c1ccc(F)c(F)c1` (single isomer, unassigned) [Compound 163a], the half-maximal effective concentration (EC50) in data set [1] (setting [5]) was 69.5 µM; in data set [2] (setting [6]), greater than 25 µM. The same compound yielded a half-maximal cytotoxic concentration (CC50) at 4 days in data set [3] greater than 25 µM.

`COC(=O)C1=C(C)NC(c2ncc(F)cc2F)=NC1(C)c1ccc(F)c(F)c1` (stereo not drawn) [132b (−)-camphanic acid]: the half-maximal effective concentration (EC50) in data set [1] (setting [7]) turned out to be 0.489 µM.

Regarding `CCOC(=O)C1=C(C#N)NC(c2ccccn2)=NC1(C)c1ccc(F)cc1` (stereo not shown) [Compound 5], the EC50 in data set [1] (setting [5]) was greater than 100 µM. Besides, in data set [4] (setting [9]), the CC50 at 6 days is greater than 100 µM.

As for `CCOC(=O)C1=C(C)NC(c2ccccn2)=NC1(C)c1ccc(F)cc1` (stereo not shown) [Compound 6], in data set [1] (setting [5]), the EC50 is greater than 25 µM. Also, the CC50 at 6 days in data set [4] (setting [9]) is greater than 25 µM.

Regarding `CCOC(=O)C1=C(CN2CCCC2)NC(c2ccccn2)=NC1(C)c1ccc(F)cc1` (stereo not shown) [Compound 7], the EC50 in data set [1] (setting [5]) was greater than 100 µM. Also, the half-maximal cytotoxic concentration (CC50) at 6 days in data set [4] (setting [9]) turned out to be 13.4 µM.

Regarding `CCOC(=O)C1=C(CN2CCCCC2)NC(c2ccccn2)=NC1(C)c1ccc(F)cc1` (stereo not shown) [Compound 9], the EC50 in data set [1] (setting [5]) was greater than 100 µM. Besides, in data set [4] (setting [9]), the CC50 at 6 days was 62.4 µM.

As to `CCOC(=O)C1=C(C(F)(F)C(F)(F)F)NC(c2ccccn2)=NC1(C)c1ccc(F)cc1` (stereo not shown) [Compound 11], the concentration for a half-maximal effect (EC50) in data set [1] (setting [5]) is greater than 100 µM. For the same compound, the CC50 at 6 days in data set [4] (setting [9]) was greater than 100 µM.

For `CCOC(=O)C1=C(C)NC(c2nccs2)=NC1(C)c1ccc(F)c(Cl)c1` (stereo not shown) [Compound 21], the half-maximal effective concentration (EC50) in data set [1] (setting [5]) was determined as 12.7 µM. Besides, the CC50 at 6 days in data set [4] (setting [9]) came to 17.5 µM.

On to `CCOC(=O)C1=C(C)NC(c2ccccn2)=NC1(c1ccc(F)cc1)C(F)(F)F` (stereo not shown) [Compound 35], for which the EC50 in data set [1] (setting [5]) was greater than 100 µM. The 50% cytotoxic concentration (CC50) at 6 days in data set [4] (setting [9]) is 68.1 µM.

In the case of `CCOC(=O)C1=C(C)NC(c2ccccn2)=NC12CCc1cc(F)ccc12` (stereo not shown) [Compound 40], in data set [1] (setting [5]), the concentration giving a half-maximal response (EC50) came to 14 µM. The compound also returned a cytotoxic concentration (CC50) at 6 days in data set [4] (HepG2 6 days CC50) of 77 µM.

As to `N#CC1=C(CN2CCOCC2)NC(c2ccccn2)=NC12CCCc1ccccc12` (stereo not shown) [Compound 61], the EC50 in data set [1] (setting [5]) was 18 µM. Also, the cytotoxic concentration (CC50) at 6 days in data set [4] (setting [9]) is greater than 100 µM.

On to `COC(=O)C1=C(C)NC(c2ncc(F)cc2C)=NC12CCCc1cc(F)ccc12` (stereo not shown) [Compound 81], for which, in data set [1] (setting [5]), the EC50 was determined as 19.9 µM. In data set [4] (HepG2 6 days CC50), the CC50 at 6 days was greater than 50 µM.

In the case of `COC(=O)C1=C(C)NC(c2ncc(F)cc2F)=NC1(C)c1ccc(F)c(F)c1` (stereo not shown) [Compound 132b], the figures for the concentration giving a half-maximal response (EC50) in data set [1] (setting [10]) and in data set [2] (setting [11]) were 0.784 µM and 0.474 µM, respectively. Further, the CC50 at 4 days in data set [3] is greater than 25 µM.

Consider `COC(=O)C1=C(C)NC(c2ccc(F)cn2)=NC1(C)c1ccc(F)c(F)c1` (stereo not shown) [Compound 133], for which the 50% effective concentration (EC50) came to 17.3 µM in data set [1] (setting [10]) and 4.33 µM in data set [2] (setting [11]). This compound gave a cytotoxic concentration (CC50) at 4 days in data set [3] greater than 25 µM.

With `COC(=O)C1=C(C2CC2)NC(c2ncc(F)cc2F)=NC1(C)c1ccc(F)c(F)c1` (stereo not shown) [Compound 142], the results for the EC50 in data set [1] (setting [5]) and in data set [2] (setting [6]) were 11.5 µM and 3.37 µM, respectively. In data set [3], this compound returned a half-maximal cytotoxic concentration (CC50) at 4 days greater than 25 µM.

Turning to `COC/C=C/C1=C(C(=O)OC)C(C)(c2ccc(F)c(F)c2)N=C(c2ncc(F)cc2F)N1` (stereo not shown) [Compound 147], the half-maximal effective concentration (EC50) in data set [1] (setting [5]) is 2.73 µM; in data set [2] (setting [6]), 3.17 µM. The compound also showed a CC50 at 4 days in data set [3] greater than 25 µM.

Regarding `COC(=O)C1=C(C)NC(c2ncc(F)cc2F)=NC1(C)c1ccc(F)c(Cl)c1` (stereo not shown) [Compound 148], in data set [2] (setting [6]), the half-maximal effective concentration (EC50) is greater than 25 µM. This compound showed a half-maximal cytotoxic concentration (CC50) at 4 days in data set [3] of 17.2 µM.

`COC(=O)C1=C(C)NC(c2ncc(F)cc2F)=NC1(C)c1ccc(F)c(C)c1` (stereo not shown) [Compound 149]: the values for the EC50 in data set [1] (setting [5]) and in data set [2] (setting [6]) were 23.8 µM and 3.26 µM, respectively. Besides, the 50% cytotoxic concentration (CC50) at 4 days in data set [3] is greater than 25 µM.

For the compound `COC(=O)C1=C(CN2CCOCC2)NC(c2ncc(F)cc2F)=NC1(C)c1ccc(F)c(Cl)c1` (stereo not shown) [Compound 150], the figures for the EC50 in data set [1] (setting [5]) and in data set [2] (setting [6]) were 1.35 µM and 0.694 µM, respectively. The same compound returned a CC50 at 4 days in data set [3] greater than 25 µM.

Turning to `COCC1=C(C(=O)OC)C(C)(c2ccc(F)c(F)c2)N=C(c2ncc(F)cc2F)N1` (stereo not shown) [Compound 152], the half-maximal effective concentration (EC50) in data set [1] (setting [5]) came out at 3.38 µM; in data set [2] (setting [6]), 2.88 µM. For the same compound, in data set [3], the CC50 at 4 days was greater than 25 µM.

As to `C=CC1=C(C(=O)OC)C(C)(c2ccc(F)c(F)c2)N=C(c2ncc(F)cc2F)N1` (stereo not shown) [Compound 153], the EC50 in data set [1] (setting [5]) was determined as 12.9 µM; in data set [2] (setting [6]) it was 3.31 µM. In data set [3], this compound had a CC50 at 4 days greater than 25 µM.

On to `COC(=O)C1=C(C)NC(c2ncc(F)cc2C)=NC1(C)c1ccc(F)c(F)c1` (stereo not shown) [Compound 154], for which the figures for the EC50 in data set [1] (setting [5]) and in data set [2] (setting [6]) were 27.5 µM and 17.6 µM, respectively. In data set [3], the half-maximal cytotoxic concentration (CC50) at 4 days was greater than 25 µM.

For `COC(=O)C1=C(C)NC(c2ncc(F)cc2F)=NC1(C)c1ccc(Cl)c(F)c1` (stereo not shown) [Compound 156], the EC50 came to 1.11 µM in data set [1] (setting [5]) and 0.669 µM in data set [2] (setting [6]). Also, the CC50 at 4 days in data set [3] is greater than 25 µM.

For `COC(=O)C1=C(C)NC(c2ncc(F)cc2F)=NC1(C)c1ccc(C)c(F)c1` (stereo not shown) [Compound 157], the values for the half-maximal effective concentration (EC50) in data set [1] (setting [5]) and in data set [2] (setting [6]) were 9.52 µM and 3.06 µM, respectively. In data set [3], this compound had a 50% cytotoxic concentration (CC50) at 4 days greater than 25 µM.

As to `COC(=O)C1=C(C)NC(c2cnccn2)=NC1(C)c1ccc(F)c(F)c1` (stereo not shown) [Compound 161], in data set [2] (setting [6]), the concentration giving a half-maximal response (EC50) was greater than 25 µM.

In the case of `COC(=O)C1=C(C)NC(c2nccn2C)=NC1(C)c1ccc(F)c(F)c1` (stereo not shown) [Compound 162], the EC50 in data set [1] (setting [5]) and in data set [2] (setting [6]) was greater than 25 µM throughout. In data set [3], the cytotoxic concentration (CC50) at 4 days was greater than 25 µM.

As a reminder, the EC50 is the concentration at which the effect is half-maximal. As usually defined, the CC50 is the concentration that lowers cell viability or growth by half.

The values are drawn from patent US9233933B2, “4,4-disubstituted-1,4-dihydropyrimidines and the use thereof as medicaments for the treatment of hepatitis B” (priority 2012, dated 2016).
